Molecules are shown by their SMILES. pIC50: −log10 of the molar value. Read-outs that look alike come from different tables or passages of the source.

For the assay, the system named is IL-17A/A. Briefly: IL-17A/A HEK-Blue cell assay. Type of assay: cell-based. The settings on record: IL-17A/A inhibition, HEK-Blue IL-17A reporter cell line, IL17A/A 5 ng/mL. How it is done: The HEK-Blue IL-17A reporter cell line (Fisher #NC1408637) was used for cell-based IL-17A/A inhibition assays. Cells were grown and prepared for assays according to the manufacturer's instructions. This cell line consists of HEK 293 cells that were designed to expressed IL-17RA, IL-17RC, and the Act1 adapter molecule, the combination of which, when stimulated by IL-17A/A or IL17A/F activates a NFκB promoter and drives expression of the recombinant Secreted Alkaline Phosphatase (SEAP) gene. Media from the cells is then added to a development reagent (Quanti-Blue Substrate, Fisher #NC9711613), and read at A630.
Compounds were dispensed in DMSO to an empty clear 384-well tissue culture plate in a titration ranging from 10 μM to 27 pM, with DMSO added to every well to a final concentration of 0.1%. Cells were then added to the plate (45 μL/well at a concentration of 280,000 cells/mL). IL17A/A (Genscript #Z03228) or IL17A/F (R&D Systems) was added to the plate to a final concentration of 5 ng/mL and a final well volume of 50 μL. The cells, compound, and IL-17A/A or IL17A/F were then incubated for 20 hours before media was removed for SEAP analysis. The resulting inhibition curve was then analyzed using Dotmatics' integrated 4-parameter fit screening protocol to generate IC50 values.

Setting [1] is: HEK-Blue, 20 h, SEAP read at A630, read-out: AA IC50.
Setting [2] is: 20 hours, SEAP read at A630, read-out: AA IC50.

As a reminder, the pIC50 is the negative decadic logarithm of the IC50, by convention in mol/L. With `O=C(N[C@H](c1cn2nc(C[C@H]3C[C@@H](C(F)(F)F)CNC3=O)c([C@H]3CCOC3)cc2n1)C1CCC(F)(F)CC1)c1nonc1C1CC1` [Compound 44], the negative logarithm of the IC50 (pIC50) under setting [1] was over 7.00.
With `CCn1nccc1C(=O)N[C@H](c1cn2nc(C[C@H]3C[C@@H](C(F)(F)F)CNC3=O)c(C3CCCC3)cc2n1)C1CCC(F)(F)CC1` [Compound 46], under setting [1], the pIC50 was over 7.00.
For `CCn1nccc1C(=O)N[C@H](c1cn2nc(C[C@H]3C[C@@H](C(F)(F)F)CNC3=O)c(N3CC4(CCCOC4)C3)cc2n1)C1CCC(F)(F)CC1` [Compound 47], under setting [1], the pIC50 is over 7.00.
`CCn1nccc1C(=O)N[C@H](c1cn2nc(C[C@H]3C[C@@H](C(F)(F)F)CNC3=O)c(N3CC4(CCOCC4)C3)cc2n1)C1CCC(F)(F)CC1` [Compound 48]: under setting [1], the pIC50 is over 7.00.
Turning to `CCn1nccc1C(=O)N[C@H](c1cn2nc(C[C@H]3C[C@@H](C(F)(F)F)CNC3=O)c(N3CCC4(COC4)C3)cc2n1)C1CCC(F)(F)CC1` [Compound 49], the pIC50 under setting [1] is over 7.00.
The same measure, in the same setting: as for `CCn1nccc1C(=O)N[C@H](c1cn2nc(C[C@H]3C[C@@H](C(F)(F)F)CNC3=O)c(N3CC4CCC(C3)O4)cc2n1)C1CCC(F)(F)CC1` [Compound 50], the figure is over 7.00; as for `CCn1nccc1C(=O)N[C@H](c1cn2nc(C[C@H]3C[C@@H](C(F)(F)F)CNC3=O)c(N3CC4CC3CO4)cc2n1)C1CCC(F)(F)CC1` (stereo partly drawn) [Compound 51], over 7.00.
With `CCn1nccc1C(=O)N[C@H](c1cn2nc(C[C@H]3C[C@@H](C(F)(F)F)CNC3=O)c(N3CC4CC3CO4)cc2n1)C1CCC(F)(F)CC1` (stereo partly drawn) [Compound 52], the pIC50 under setting [2] is over 7.00.
Take `O=C(N[C@H](c1cn2nc(C[C@H]3C[C@@H](C(F)(F)F)CNC3=O)c(C3CCOCC3)cc2n1)C1CCC(F)(F)CC1)c1nonc1C1CC1` [Compound 54]: the negative logarithm of the IC50 (pIC50) under setting [1] was over 7.00.
Still for that read-out and setting: the result for `CCn1nccc1C(=O)N[C@H](c1cn2nc(C[C@H]3C[C@@H](C(F)(F)F)CNC3=O)c(C3CCOCC3)cc2n1)[C@H]1CCCC(F)(F)C1` [Compound 55] reads over 7.00.
Regarding `CCn1nccc1C(=O)N[C@H](c1cn2nc(C[C@H]3C[C@@H](C(F)(F)F)CNC3=O)c(C3CCOCC3)cc2n1)[C@@H]1CCCC(F)(F)C1` [Compound 56], under setting [1], the pIC50 was over 7.00.
On the same count and under the same terms, the result for `O=C(N[C@H](c1cn2nc(C[C@H]3C[C@@H](C(F)(F)F)CNC3=O)c(C3CCOCC3)cc2n1)[C@H]1CCCC(F)(F)C1)c1nonc1C1CC1` [Compound 57] reads over 7.00.
`CCn1nccc1C(=O)N[C@H](c1cn2nc(C[C@H]3C[C@@H](C(F)(F)F)CNC3=O)c(C3=CCOC3)cc2n1)C1CCC(F)(F)CC1` [Compound 58]: the pIC50 under setting [1] was 6.00 to 7.00.
On the same count and under the same terms, as for `O=C(N[C@H](c1cn2nc(C[C@H]3C[C@@H](C(F)(F)F)CNC3=O)c(C3CCOCC3)cc2n1)[C@@H]1CCCC(F)(F)C1)c1nonc1C1CC1` [Compound 59], the figure is over 7.00; as for `CCn1nccc1C(=O)N[C@H](c1cn2nc(C[C@H]3C[C@@H](C(F)(F)F)CNC3=O)c(C3CCN(C)CC3)cc2n1)C1CCC(F)(F)CC1` [Compound 60], 6.00 to 7.00.
For `CCn1nccc1C(=O)N[C@H](c1cn2nc(C[C@H]3C[C@@H](C(F)(F)F)CNC3=O)c(C3CCN(C)C3)cc2n1)C1CCC(F)(F)CC1` (stereo partly drawn) [Compound 61], the pIC50 under setting [1] is 6.00 to 7.00.
In the case of `CCn1nccc1C(=O)N[C@H](c1cn2nc(C[C@H]3C[C@@H](C(F)(F)F)CNC3=O)c(C3CCN(C)C3)cc2n1)C1CCC(F)(F)CC1` (stereo partly drawn) [Compound 62], under setting [2], the negative logarithm of the IC50 (pIC50) was 6.00 to 7.00.
For the molecule `CCn1nccc1C(=O)N[C@H](c1cn2nc(C[C@H]3C[C@@H](C(F)(F)F)CNC3=O)c(C3CCCOC3)cc2n1)[C@H]1CCCC(F)(F)C1` (stereo partly drawn) [Compound 63], the pIC50 under setting [1] was over 7.00.
Same read-out and setting: as for `CCn1nccc1C(=O)N[C@H](c1cn2nc(C[C@H]3C[C@@H](C(F)(F)F)CNC3=O)c(C3CCCOC3)cc2n1)[C@@H]1CCCC(F)(F)C1` (stereo partly drawn) [Compound 64], the figure is over 7.00.
In the case of `CCn1nccc1C(=O)N[C@H](c1cn2nc(C[C@H]3C[C@@H](C(F)(F)F)CNC3=O)c(C3CCCOC3)cc2n1)[C@H]1CCCC(F)(F)C1` (stereo partly drawn) [Compound 65], under setting [2], the pIC50 is over 7.00.
On the same count and under the same terms, the result for `CCn1nccc1C(=O)N[C@H](c1cn2nc(C[C@H]3C[C@@H](C(F)(F)F)CNC3=O)c(C3CCCOC3)cc2n1)[C@@H]1CCCC(F)(F)C1` (stereo partly drawn) [Compound 66] reads over 7.00.
For `CCn1nccc1C(=O)N[C@H](c1cn2nc(C[C@H]3C[C@@H](C(F)(F)F)CNC3=O)c(C3CCOC3)cc2n1)[C@H]1CCCC(F)(F)C1` (stereo partly drawn) [Compound 67], the pIC50 under setting [1] is over 7.00.
Still for that read-out and setting: the result for `CCn1nccc1C(=O)N[C@H](c1cn2nc(C[C@H]3C[C@@H](C(F)(F)F)CNC3=O)c(C3CCOC3)cc2n1)[C@@H]1CCCC(F)(F)C1` (stereo partly drawn) [Compound 68] reads over 7.00; that for `O=C(N[C@H](c1cn2nc(C[C@H]3C[C@@H](C(F)(F)F)CNC3=O)c(C3CCOC3)cc2n1)[C@H]1CCCC(F)(F)C1)c1nonc1C1CC1` (stereo partly drawn) [Compound 69], over 7.00.
With `O=C(N[C@H](c1cn2nc(C[C@H]3C[C@@H](C(F)(F)F)CNC3=O)c(C3CCOC3)cc2n1)[C@@H]1CCCC(F)(F)C1)c1nonc1C1CC1` (stereo partly drawn) [Compound 70], the pIC50 under setting [1] is over 7.00.
Turning to `CCn1nccc1C(=O)N[C@H](c1cn2nc(C[C@H]3C[C@@H](C(F)(F)F)CNC3=O)c(C3CCOC3)cc2n1)[C@H]1CCCC(F)(F)C1` (stereo partly drawn) [Compound 71], the pIC50 under setting [2] is over 7.00.
Still for that read-out and setting: as for `CCn1nccc1C(=O)N[C@H](c1cn2nc(C[C@H]3C[C@@H](C(F)(F)F)CNC3=O)c(C3CCOC3)cc2n1)[C@@H]1CCCC(F)(F)C1` (stereo partly drawn) [Compound 72], the figure is over 7.00.
Same read-out and setting: the result for `O=C(N[C@H](c1cn2nc(C[C@H]3C[C@@H](C(F)(F)F)CNC3=O)c(C3CCOC3)cc2n1)[C@H]1CCCC(F)(F)C1)c1nonc1C1CC1` (stereo partly drawn) [Compound 73] reads over 7.00.
Consider `O=C(N[C@H](c1cn2nc(C[C@H]3C[C@@H](C(F)(F)F)CNC3=O)c(C3CCOC3)cc2n1)[C@@H]1CCCC(F)(F)C1)c1nonc1C1CC1` (stereo partly drawn) [Compound 74], for which the pIC50 under setting [2] is over 7.00.
In the case of `CC(C)n1nccc1C(=O)N[C@H](c1cn2nc(C[C@H]3C[C@@H](C(F)(F)F)CNC3=O)c(C3CCOCC3)cc2n1)C1CCC(F)(F)CC1` [Compound 75], the negative logarithm of the IC50 (pIC50) under setting [1] was over 7.00.
For the molecule `CCn1nccc1C(=O)N[C@H](c1cn2nc(C[C@H]3C[C@@H](C(F)(F)F)CNC3=O)c(C3CCCCC3)cc2n1)C1CCC(F)(F)CC1` [Compound 76], the pIC50 under setting [1] was over 7.00.
The same measure, in the same setting: the result for `CCn1nccc1C(=O)N[C@H](c1cn2nc(C[C@H]3C[C@@H](C(F)(F)F)CNC3=O)c(N3CCC(OC)C3)cc2n1)C1CCC(F)(F)CC1` (stereo partly drawn) [Compound 77] reads over 7.00.
Consider `CCn1nccc1C(=O)N[C@H](c1cn2nc(C[C@H]3C[C@@H](C(F)(F)F)CNC3=O)c(N3CCC(OC)C3)cc2n1)C1CCC(F)(F)CC1` (stereo partly drawn) [Compound 78], for which the pIC50 under setting [2] is over 7.00.
For the molecule `CCn1nccc1C(=O)N[C@H](c1cn2nc(C[C@H]3C[C@@H](C(F)(F)F)CNC3=O)c(N3CC(OC)C3)cc2n1)C1CCC(F)(F)CC1` [Compound 79], the negative-log IC50 (pIC50) under setting [1] was over 7.00.
As to `CCn1nccc1C(=O)N[C@H](c1cn2nc(C[C@H]3C[C@@H](C(F)(F)F)CNC3=O)c(N3CCN(C4CC4)CC3)cc2n1)C1CCC(F)(F)CC1` [Compound 80], under setting [1], the pIC50 is over 7.00.
For the molecule `CCn1nccc1C(=O)N[C@H](c1cn2nc(C[C@H]3C[C@@H](C(F)(F)F)CNC3=O)c(N3CCOC4(CC4)C3)cc2n1)C1CCC(F)(F)CC1` [Compound 81], the pIC50 under setting [1] is over 7.00.
The same measure, in the same setting: as for `CCn1nccc1C(=O)N[C@H](c1cn2nc(C[C@H]3C[C@@H](C(F)(F)F)CNC3=O)c(N3CCN(C)C4(CC4)C3)cc2n1)C1CCC(F)(F)CC1` [Compound 82], the figure is over 7.00; as for `CCn1nccc1C(=O)N[C@H](c1cn2nc(C[C@H]3C[C@@H](C(F)(F)F)CNC3=O)c(C3CCCO3)cc2n1)C1CCC(F)(F)CC1` (stereo partly drawn) [Compound 83], over 7.00; as for `CCn1nccc1C(=O)N[C@H](c1cn2nc(C[C@H]3C[C@@H](C(F)(F)F)CNC3=O)c(C3CCCCO3)cc2n1)C1CCC(F)(F)CC1` (stereo partly drawn) [Compound 84], over 7.00.
Regarding `CCn1nccc1C(=O)N[C@H](c1cn2nc(C[C@H]3C[C@@H](C(F)(F)F)CNC3=O)c(C3CCCCO3)cc2n1)C1CCC(F)(F)CC1` (stereo partly drawn) [Compound 85], the negative logarithm of the IC50 (pIC50) under setting [2] is over 7.00.
For `CCn1nccc1C(=O)N[C@H](c1cn2nc(C[C@H]3C[C@@H](C(F)(F)F)CNC3=O)c(C3CCOCC3)cc2n1)C1CCC(C)CC1` (stereo partly drawn) [Compound 86], the pIC50 under setting [1] was over 7.00.
The same measure, in the same setting: the result for `CCn1nccc1C(=O)N[C@H](c1cn2nc(C[C@H]3C[C@@H](C(F)(F)F)CNC3=O)c(C3CCOC(C)(C)C3)cc2n1)C1CCC(F)(F)CC1` (stereo partly drawn) [Compound 87] reads over 7.00.
Regarding `CCn1nccc1C(=O)N[C@H](c1cn2nc(C[C@H]3C[C@@H](C(F)(F)F)CNC3=O)c(C3CCOC(C)(C)C3)cc2n1)C1CCC(F)(F)CC1` (stereo partly drawn) [Compound 88], the pIC50 under setting [2] is over 7.00.
As for `CCn1ncnc1C(=O)N[C@H](c1cn2nc(C[C@H]3C[C@@H](C(F)(F)F)CNC3=O)c(C3CCOCC3)cc2n1)C1CCC(F)(F)CC1` [Compound 89], under setting [1], the pIC50 is 6.00 to 7.00.
`CC(C)n1ncnc1C(=O)N[C@H](c1cn2nc(C[C@H]3C[C@@H](C(F)(F)F)CNC3=O)c(C3CCOCC3)cc2n1)C1CCC(F)(F)CC1` [Compound 90]: under setting [1], the pIC50 is over 7.00.

For the origin of these results see US20260265259A1, “SUBSTITUTED 6-IMIDAZOPYRIDAZINE IL-17A MODULATORS AND USES THEREOF” (DICE ALPHA, INC., priority 2023, published 2026).
